Earlier results as cited in patent US20220331289A1, “Pharmaceutical Composition Comprising an Artemisinin Derivative for Nasal or Pulmonary Delivery” (Cipla Limited, priority 2014, published 2022).

Settings: oil-based intramuscular injection formulation

- absorption: slowly and erratically absorbed
Structure (SMILES): CO[C@H]1O[C@@H]2O[C@@]3(C)CC[C@H]4[C@H](C)CC[C@@H]([C@H]1C)[C@@]24OO3 [artemether]
